Key:
[1] = test system: non-cancerous human lung fibroblast cells (HLF); assay: Cytotoxicity, CellTiter Glo assay, non-cancerous human lung fibroblast cells; format: cell-based; conditions: for IC50: Homo sapiens, Fibroblast, 72 h, read-out: IC50 Non-cancerous HLF
A549 cells = assay: Antiproliferative activity, CellTiter Glo assay, A549; conditions: Homo sapiens, A549, 72 h, read-out: IC50 A549
NCI-H522 cells [2] = assay: Antiproliferative activity, CellTiter Glo assay, NCI-H522; conditions: Homo sapiens, NCI-H522, 72 h, read-out: IC50 NCIH522
NCI-H522 cells [3] = assay: Cell cycle analysis by flow cytometry; format: cell-based, human; conditions: 48hrs at 5 μM
ACVRL1 = ACVRL1 (Homo sapiens, UniProt P37023); assay: Kinase activity profiling; format: biochemical; conditions: concentration not given
Sequence of ACVRL1 (P37023 22-503): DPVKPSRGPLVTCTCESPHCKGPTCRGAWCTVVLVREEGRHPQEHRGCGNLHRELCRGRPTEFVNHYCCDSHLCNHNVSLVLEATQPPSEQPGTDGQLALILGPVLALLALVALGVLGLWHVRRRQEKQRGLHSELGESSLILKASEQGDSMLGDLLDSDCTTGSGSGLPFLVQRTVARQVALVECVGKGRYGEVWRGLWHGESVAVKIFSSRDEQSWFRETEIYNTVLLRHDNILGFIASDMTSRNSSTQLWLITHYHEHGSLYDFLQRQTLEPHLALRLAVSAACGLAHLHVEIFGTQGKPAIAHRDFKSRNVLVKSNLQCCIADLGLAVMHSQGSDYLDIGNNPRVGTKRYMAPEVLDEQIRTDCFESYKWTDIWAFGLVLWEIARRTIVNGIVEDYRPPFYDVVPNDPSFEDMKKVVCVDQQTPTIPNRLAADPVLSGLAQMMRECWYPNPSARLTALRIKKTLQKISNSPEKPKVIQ

ANKK1 = molecular target: T1, ANKK1 (Homo sapiens, UniProt Q8NFD2); assay: Kinase activity profiling; format: biochemical; conditions: concentration not given
T1 sequence (Q8NFD2 1-765): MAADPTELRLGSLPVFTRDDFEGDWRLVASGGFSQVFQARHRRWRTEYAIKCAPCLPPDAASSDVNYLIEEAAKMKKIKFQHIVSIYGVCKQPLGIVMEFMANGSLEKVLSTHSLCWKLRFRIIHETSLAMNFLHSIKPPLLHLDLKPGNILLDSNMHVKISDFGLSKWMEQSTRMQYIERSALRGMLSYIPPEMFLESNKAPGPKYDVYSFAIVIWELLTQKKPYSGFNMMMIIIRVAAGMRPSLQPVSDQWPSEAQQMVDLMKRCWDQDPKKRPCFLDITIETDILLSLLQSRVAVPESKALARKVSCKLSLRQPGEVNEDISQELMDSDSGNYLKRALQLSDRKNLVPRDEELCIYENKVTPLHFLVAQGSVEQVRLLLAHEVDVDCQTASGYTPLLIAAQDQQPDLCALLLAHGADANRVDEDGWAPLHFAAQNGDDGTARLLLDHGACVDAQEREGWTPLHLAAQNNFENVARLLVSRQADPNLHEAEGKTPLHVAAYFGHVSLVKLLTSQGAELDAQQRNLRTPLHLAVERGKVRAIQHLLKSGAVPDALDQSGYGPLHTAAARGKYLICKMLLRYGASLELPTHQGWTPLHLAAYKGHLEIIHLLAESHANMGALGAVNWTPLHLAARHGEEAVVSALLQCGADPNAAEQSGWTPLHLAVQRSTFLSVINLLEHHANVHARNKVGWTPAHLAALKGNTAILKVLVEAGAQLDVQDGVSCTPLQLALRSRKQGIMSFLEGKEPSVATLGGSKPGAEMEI

NUAK2 = molecular target: T2, NUAK2 (Homo sapiens, UniProt Q9H093); assay: Kinase activity profiling; format: biochemical; conditions: concentration not given
T2 sequence (Q9H093 1-628): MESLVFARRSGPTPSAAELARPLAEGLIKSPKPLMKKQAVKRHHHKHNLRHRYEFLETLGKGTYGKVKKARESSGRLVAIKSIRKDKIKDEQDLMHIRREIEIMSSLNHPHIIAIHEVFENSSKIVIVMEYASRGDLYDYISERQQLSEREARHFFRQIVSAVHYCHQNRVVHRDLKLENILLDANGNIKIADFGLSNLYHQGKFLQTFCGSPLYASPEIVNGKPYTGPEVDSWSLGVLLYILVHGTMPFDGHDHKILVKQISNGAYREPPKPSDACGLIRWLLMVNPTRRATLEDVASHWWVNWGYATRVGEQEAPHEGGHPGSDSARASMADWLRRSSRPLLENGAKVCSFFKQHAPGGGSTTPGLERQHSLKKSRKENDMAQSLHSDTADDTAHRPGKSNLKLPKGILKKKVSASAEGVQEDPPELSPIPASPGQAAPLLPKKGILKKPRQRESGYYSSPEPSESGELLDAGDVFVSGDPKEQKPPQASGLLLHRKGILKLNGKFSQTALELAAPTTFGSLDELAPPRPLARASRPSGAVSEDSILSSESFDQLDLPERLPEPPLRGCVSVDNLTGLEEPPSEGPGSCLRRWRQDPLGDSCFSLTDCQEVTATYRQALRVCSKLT

[4] = test system: panel of 485 kinases (including 110 oncogenic kinases); assay: Kinase activity profiling; format: biochemical

IC50 (A549 cells) [µM] | IC50 (NCI-H522 cells [2]) [µM] | inhibitory activity against ACVRL1 (ACVRL1) [%] | inhibitory activity against ANKK1 (ANKK1) [%] | inhibitory activity against NUAK2 (NUAK2) [%] | Structure (SMILES) | IC50 [1] [µM] | times less cytotoxic to non-cancerous cells ([1]; non-cancerous cells versus A549 and NCIH522 cancer cell lines) [times] | effect on cell cycle progression (NCI-H522 cells [3]) | inhibitory activity over panel of 485 kinases [4]
> 100 | > 100 |  |  |  | CC1=NN(c2ccccc2)C(=O)C1(C)O (stereo not drawn) [P1, 4-hydroxy-4,5-dimethyl-2-phenyl-2,4-dihydro-3H-pyrazol-3-one] | > 100 |  |  | 
> 100 | > 100 |  |  |  | CCCC1=NN(c2ccccc2)C(=O)C1 [P2, 2-phenyl-5-propyl-2,4-dihydro-3H-pyrazol-3-one] |  |  |  | 
2.61 ± 1.12 | 4.93 ± 1.13 |  |  |  | O=C1CC(c2ccccc2)=NN1c1ccc(Br)cc1 [P4, 2-(4-bromophenyl)-5-phenyl-2,4-dihydro-3H-pyrazol-3-one] | 0.72 ± 1.07 |  |  | 
39.6 ± 1.05 | 40.5 ± 2.3 |  |  |  | O=C1CC(c2ccc([N+](=O)[O-])cc2)=NN1c1ccccc1 [P6, 5-(4-nitrophenyl)-2-phenyl-2,4-dihydro-3H-pyrazol-3-one] | 26.8 ± 1.4 |  |  | 
6.35 ± 0.85 | 4.7 ± 1.38 | 47 | 50 | 41 | O=C1CC(c2ccc(Br)cc2)=NN1c1ccccc1 [P7, 5-(4-bromophenyl)-2-phenyl-2,4-dihydro-3H-pyrazol-3-one] | 61.3 ± 1.08 | 10 | more cell population in G0/G1 phase | no potential inhibitory activity against any tested kinase
9.51 ± 3.12 | 17.9 ± 3.36 |  |  |  | O=C1CC(c2ccc(F)cc2)=NN1c1ccccc1 [P8, 5-(4-fluorophenyl)-2-phenyl-2,4-dihydro-3H-pyrazol-3-one] | 17.7 ± 1.1 |  |  | 
42.2 ± 2.76 | 51.2 ± 3.06 |  |  |  | COc1ccc(C2=NN(c3ccccc3)C(=O)C2)cc1 [P9, 5-(4-methoxyphenyl)-2-phenyl-2,4-dihydro-3H-pyrazol-3-one] |  |  |  | 
> 100 | > 100 |  |  |  | COc1cccc(C2=NN(c3ccccc3)C(=O)C2)c1 [P10, 5-(3-methoxyphenyl)-2-phenyl-2,4-dihydro-3H-pyrazol-3-one] |  |  |  | 
5.98 ± 0.84 | 4.88 ± 1.73 |  |  |  | O=C1CC(c2ccc(C(F)(F)F)cc2)=NN1c1ccccc1 [P11, 2-phenyl-5-(4-(trifluoromethyl)phenyl)-2,4-dihydro-3H-pyrazol-3-one] | 26.1 ± 1.12 |  | more cell population in G0/G1 phase | 
8.6 ± 0.59 | 9.9 ± 2.44 |  |  |  | O=C1CC(c2cc(F)c(F)c(F)c2F)=NN1c1ccccc1 [P12, 2-phenyl-5-(2,3,4,5-tetrafluorophenyl)-2,4-dihydro-3H-pyrazol-3-one] | 8.52 ± 1.09 |  |  | 
2.67 ± 0.51 | 3.7 ± 0.34 |  |  |  | O=C1CC(c2ccc(F)cc2)=NN1c1ccc(Br)cc1 [P13, 2-(4-bromophenyl)-5-(4-fluorophenyl)-2,4-dihydro-3H-pyrazol-3-one] | 3.57 ± 1.15 |  | more cell population in G2/M phase | 
2.73 ± 0.28 | 2.41 ± 0.57 |  |  |  | O=C1CC(c2ccc(Br)cc2)=NN1c1ccc(Br)cc1 [P14, 2,5-bis(4-bromophenyl)-2,4-dihydro-3H-pyrazol-3-one] | 2.55 ± 1.1 |  | more cell population in G2/M phase | 
3.37 ± 0.1 | 2.95 ± 0.18 |  |  |  | O=C1CC(c2ccc(Br)cc2)=NN1c1ccc(C(F)(F)F)cc1 [P16, 5-(4-bromophenyl)-2-(4-(trifluoromethyl)phenyl)-2,4-dihydro-3H-pyrazol-3-one] | 1.45 ± 1.14 |  |  | 
5.56 ± 0.07 | 5.07 ± 1.18 |  |  |  | O=C1CC(c2ccc(Br)cc2)=NN1c1cc(Cl)cc(Cl)c1 [P17, 5-(4-bromophenyl)-2-(3,5-dichlorophenyl)-2,4-dihydro-3H-pyrazol-3-one] | 6.94 ± 1.12 |  |  | 
8.46 ± 2.03 | 5.34 ± 0.94 |  |  |  | CN(C)C/C=C/C(=O)Nc1cc2c(Nc3ccc(F)c(Cl)c3)ncnc2cc1O[C@H]1CCOC1 [PC-1, Afatinib, reference compound] | 12.2 ± 3.12 |  |  | 

Structure (SMILES) | IC50 (A549 cells) [µM] | IC50 (NCI-H522 cells [2]) [µM] | inhibitory activity against ACVRL1 (ACVRL1) [%] | inhibitory activity against ANKK1 (ANKK1) [%] | inhibitory activity against NUAK2 (NUAK2) [%] | IC50 [1] [µM] | times less cytotoxic to non-cancerous cells ([1]; non-cancerous cells versus A549 and NCIH522 cancer cell lines) [times] | effect on cell cycle progression (NCI-H522 cells [3]) | inhibitory activity over panel of 485 kinases [4]
O=C1CC(c2ccccc2)=NN1c1ccccc1 [P3, 2,5-diphenyl-2,4-dihydro-3H-pyrazol-3-one] | 10.3 ± 1.55 | 17 ± 2.61 |  |  |  | 25.1 ± 1.39 |  |  | 
O=C1CC(c2ccccc2)=NN1c1ccc(Cl)cc1 [P5, 2-(4-chlorophenyl)-5-phenyl-2,4-dihydro-3H-pyrazol-3-one] | 1.98 ± 1.1 | 4.5 ± 1.16 |  |  |  | 0.99 ± 1.25 |  |  | 
